Source: patent US20240148821A1, “PHARMACEUTICAL USE OF CYCLIC PEPTIDE COMPOUND” (CHUGAI SEIYAKU KABUSHIKI KAISHA, priority 2021, published 2024)
Numbered stars: 1 amine (or outer) side, 2 acyl side, 3 side chain; on linkers, the order of the positions; unused ones are H or OH. Bridge positions count the residues as written; N and C are the ends. Square brackets hold non-standard residues; d marks the D form. Peptide text beside a SMILES is read from it. * marks the point of attachment. hPhe(3-Cl-4-CF3) = N[C@@H](CCc1ccc(C(F)(F)F)c(Cl)c1)C(=O)O; NMeAbu(4,4,4-F3) = CN[C@@H](CC(F)(F)F)C(=O)O; NMePhe(3-Me) = CN[C@@H](Cc1cccc(C)c1)C(=O)O; NMePhe(4-Me) = CN[C@@H](Cc1ccc(C)cc1)C(=O)O; NMePhe(4-F) = CN[C@@H](Cc1ccc(F)cc1)C(=O)O; NMedβ3hAla = C[C@H](CC(=O)[*:2])N(C)[*:1]; NMePhe(2-F) = CN[C@@H](Cc1ccccc1F)C(=O)O; NMeGly(cPent) = CN[C@H](C(=O)O)C1CCCC1; Phe(3-I) = N[C@@H](Cc1cccc(I)c1)C(=O)O; Pro(4,4-F2) = O=C(O)[C@@H]1CC(F)(F)CN1; NMeAla(cPr) = CN[C@@H](CC1CC1)C(=O)O; Phe(2-F) = N[C@@H](Cc1ccccc1F)C(=O)O; NMe4Pal = CN[C@@H](Cc1ccncc1)C(=O)O; NMeCha = CN[C@@H](CC1CCCCC1)C(=O)O; NMeChg = CN[C@H](C(=O)O)C1CCCCC1; NMeI = CC[C@H](C)[C@H](NC)C(=O)O; NMeD = CN[C@@H](CC(=O)O)C(=O)O; NMeL = CN[C@@H](CC(C)C)C(=O)O; Cba = N[C@@H](CC1CCC1)C(=O)O; NMeV = CN[C@H](C(=O)O)C(C)C; d(β3hA) = C[C@@H](N)CC(=O)O; NMeA = CN[C@@H](C)C(=O)O; NMeAib = CNC(C)(C)C(=O)O; Piperidide = C1CCN(*)CC1; Pra = C#CC[C@H](N)C(=O)O; Pyrrolidide = C1CCN(*)C1; dNMeA = CN[C@H](C)C(=O)O; Ac5c = NC1(C(=O)O)CCCC1; Aze = O=C(O)[C@@H]1CCN1; Sar = CNCC(=O)O

Each compound was assayed on Human pancreatic cancer cell line AsPC-1 (G12D mutation Kras) (assay: AsPC-1 cell growth inhibition (AsPC-1 CGI)). Conditions: read-out: AsPC-1 cell growth inhibition, 50% growth inhibitory concentration (IC50 value); 96 hours, CellTiter-Glo, values classified in ranges.
Format: cell-based
Protocol: Test compounds were serially dilated with dimethyl sulfoxide, and 200 nL was then dispensed to a U-bottom 96-well plate using Labcyte Echo. […] The cell suspension was dispensed to a. plate containing a test compound at 100 μL per well and incubated at 37° C. in a 5% carbon dioxide gas incubator. 96 hours later, 80 μL of CellTiter-Glo (Promega) was added to each well and fluorescence was measured.

`CC[C@H](C)[C@@H]1NC(=O)[C@H](CC(C)C)N(C)C(=O)C[C@@H](C)NC(=O)[C@H](CC2CC2)N(C)C(=O)C2(CCCC2)NC(=O)[C@@H]2CCCN2C(=O)[C@H](CCc2ccc(C(F)(F)F)c(Cl)c2)NC(=O)CN(C)C(=O)[C@H](CC2CCCCC2)N(C)C(=O)CN(C)C(=O)CN(C)C1=O` [Compound 707] (cyclo([Ac5c][NMeAla(cPr)][d(β3hA)][NMeL]I[Sar][Sar][NMeCha][Sar][hPhe(3-Cl-4-CF3)]P)) and `CC(C)C[C@H]1C(=O)N[C@@H](CC2CCC2)C(=O)N(C)CC(=O)N(C)CC(=O)N(C)[C@@H](CC2CCCCC2)C(=O)N(C)CC(=O)N[C@@H](CCc2ccc(C(F)(F)F)c(Cl)c2)C(=O)N2CCC[C@H]2C(=O)NC2(CCCC2)C(=O)N(C)[C@@H](C(C)C)C(=O)N(C)[C@H](C(=O)N2CCCCC2)CC(=O)N1C` [Compound 451] ([NMeL][Cba][Sar][Sar][NMeCha][Sar][hPhe(3-Cl-4-CF3)]P[Ac5c][NMeV][NMeD]-Piperidide; lactam N-11) cannot be ordered by IC50: over 500 nM for the first, over 500 nM for the second.

`CC[C@H](C)[C@@H]1NC(=O)[C@H](C)N(C)C(=O)C[C@@H](C)N(C)C(=O)[C@H](CC(C)C)NC(=O)C(C)(C)N(C)C(=O)[C@H](CC(C)C)NC(=O)[C@H](CCc2ccc(C(F)(F)F)c(Cl)c2)NC(=O)CN(C)C(=O)[C@H](Cc2ccc(C)cc2)N(C)C(=O)[C@@H]2CCN2C(=O)CN(C)C1=O` [Compound 1377] (cyclo([Aze][NMePhe(4-Me)][Sar][hPhe(3-Cl-4-CF3)]L[NMeAib]L[NMedβ3hAla][NMeA]I[Sar])) and `CC[C@H](C)[C@@H]1NC(=O)[C@H](CC(C)C)N(C)C(=O)C[C@@H](C(=O)N2CCCCC2)N(C)C(=O)[C@H](CC(C)C)NC(=O)C(C)(C)N(C)C(=O)[C@H](Cc2ccccc2F)NC(=O)[C@H](Cc2cccc(I)c2)NC(=O)CN(C)C(=O)[C@H](Cc2ccc(C)cc2)N(C)C(=O)[C@@H]2CCN2C(=O)CN(C)C1=O` [Compound 638] ([NMeL]I[Sar][Aze][NMePhe(4-Me)][Sar][Phe(3-I)][Phe(2-F)][NMeAib]L[NMeD]-Piperidide; lactam N-11) cannot be ordered by IC50: over 500 nM for the first, over 500 nM for the second.

First: CC[C@H](C)[C@@H]1NC(=O)[C@H](CC(C)C)N(C)C(=O)C[C@@H](C(=O)N(C)C)N(C)C(=O)[C@H]([C@@H](C)CC)N(C)C(=O)C2(CCCC2)NC(=O)[C@H](Cc2ccncc2)N(C)C(=O)[C@H](CCc2ccc(C(F)(F)F)c(Cl)c2)NC(=O)CN(C)C(=O)[C@H](Cc2ccc(C)cc2)N(C)C(=O)[C@@H]2CCN2C(=O)[C@H](C)N(C)C1=O [Compound 1962] ([NMeL]I[NMeA][Aze][NMePhe(4-Me)][Sar][hPhe(3-Cl-4-CF3)][NMe4Pal][Ac5c][NMeI][NMeD]-NMe2; lactam N-11)
Second: CC[C@H](C)[C@@H]1NC(=O)[C@H](CC(C)C)N(C)C(=O)C[C@@H](C)NC(=O)[C@H](C(C)C)N(C)C(=O)C2(CCCC2)NC(=O)[C@@H]2CCCN2C(=O)[C@H](CCc2ccc(C(F)(F)F)c(Cl)c2)NC(=O)CN(C)C(=O)[C@H](Cc2ccccc2F)N(C)C(=O)CN(C)C(=O)CN(C)C1=O [Compound 1585] (cyclo([Ac5c][NMeV][d(β3hA)][NMeL]I[Sar][Sar][NMePhe(2-F)][Sar][hPhe(3-Cl-4-CF3)]P))
The IC50 of the first is lower: at most 20 nM for the first, over 500 nM for the second. The first is the more potent here.

Compared with `CC[C@H](C)[C@@H]1NC(=O)[C@H](CC(F)(F)F)N(C)C(=O)C[C@@H](C(=O)N2CCCC2)N(C)C(=O)[C@H](C2CCCCC2)N(C)C(=O)C2(CCCC2)NC(=O)[C@@H]2CC(F)(F)CN2C(=O)[C@H](CCc2ccc(C(F)(F)F)c(Cl)c2)NC(=O)CN(C)C(=O)[C@H](CC2CCCCC2)N(C)C(=O)CN(C)C(=O)CN(C)C1=O` [Compound 1357] ([NMeAbu(4,4,4-F3)]I[Sar][Sar][NMeCha][Sar][hPhe(3-Cl-4-CF3)][Pro(4,4-F2)][Ac5c][NMeChg][NMeD]-Pyrrolidide; lactam N-11), `CC[C@H](C)[C@@H]1NC(=O)[C@H](C)N(C)C(=O)C[C@@H](C)NC(=O)[C@H](C2CCCC2)N(C)C(=O)C2(CCCC2)NC(=O)[C@@H]2CCCN2C(=O)[C@H](CCc2ccc(C(F)(F)F)c(Cl)c2)NC(=O)[C@@H](C)N(C)C(=O)[C@H](Cc2cccc(C)c2)N(C)C(=O)[C@@H]2CCN2C(=O)[C@H](C)N(C)C1=O` [Compound 117] (cyclo([Ac5c][NMeGly(cPent)][d(β3hA)][NMeA]I[NMeA][Aze][NMePhe(3-Me)][dNMeA][hPhe(3-Cl-4-CF3)]P)) is higher in IC50: at most 20 nM for the first, over 500 nM for the second. The first is the more potent here.

`C#CC[C@@H]1NC(=O)[C@H](Cc2cccc(I)c2)NC(=O)CN(C)C(=O)[C@H](Cc2ccc(F)cc2)N(C)C(=O)CN(C)C(=O)CN(C)C(=O)[C@H]([C@@H](C)CC)NC(=O)[C@H](CC(C)C)N(C)C(=O)C[C@@H](C(=O)N2CCCCC2)N(C)C(=O)[C@H](CC(C)C)NC(=O)C(C)(C)N(C)C1=O` [Compound 1327] ([NMeL]I[Sar][Sar][NMePhe(4-F)][Sar][Phe(3-I)][Pra][NMeAib]L[NMeD]-Piperidide; lactam N-11) was tested, and the IC50 was over 500 nM.
